# Test results as given in ChEMBL document CHEMBL1201862, “PubChem BioAssay data set” (2004).
# Active and inactive are the calls of the source.
# Experiments:
# [1] = biological target: T1, Neuropeptides B/W receptor type 1 (Homo sapiens, UniProt P48145); assay: Fluorescence-based dose response cell-based high throughput screening assay to identify antagonists of the G-protein coupled receptor 7 (GPR7). [Related pubchem assays: 1952 (Screening assay (GPR7 antagonists).), 1880 (Summary AID.)]; assay type: functional
# T1 sequence (P48145 whole entry): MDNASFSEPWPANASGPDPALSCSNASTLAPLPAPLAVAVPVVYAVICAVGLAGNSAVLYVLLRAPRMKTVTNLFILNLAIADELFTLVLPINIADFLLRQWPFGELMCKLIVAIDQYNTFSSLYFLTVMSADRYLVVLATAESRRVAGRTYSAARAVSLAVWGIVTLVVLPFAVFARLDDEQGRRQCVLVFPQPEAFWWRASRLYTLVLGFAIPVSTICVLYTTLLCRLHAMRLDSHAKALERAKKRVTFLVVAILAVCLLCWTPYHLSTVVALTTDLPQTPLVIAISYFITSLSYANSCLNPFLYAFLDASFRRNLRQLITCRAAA
# [2] = biological target: Melanin-concentrating hormone receptor 1 (Homo sapiens, UniProt Q99705); assay: Fluorescence-based counterscreen for antagonists of the G-protein coupled receptor 7 (GPR7): cell-based high throughput dose response assay to identify antagonists of the melanin-concentrating hormone receptor 1 (MCHR1).; assay type: functional
# Aminopeptidase N = biological target: T2, Aminopeptidase N (Plasmodium falciparum FcB1/Columbia, UniProt O96935); assay: P. falciparum M1AAP inhibitors, biochemical, fluorogenic H-Leu-NHMec substrate, 1536-well (AID 1445); parameters: species or system Plasmodium falciparum 3D7, 3D7
# T2 sequence (O96935 whole entry): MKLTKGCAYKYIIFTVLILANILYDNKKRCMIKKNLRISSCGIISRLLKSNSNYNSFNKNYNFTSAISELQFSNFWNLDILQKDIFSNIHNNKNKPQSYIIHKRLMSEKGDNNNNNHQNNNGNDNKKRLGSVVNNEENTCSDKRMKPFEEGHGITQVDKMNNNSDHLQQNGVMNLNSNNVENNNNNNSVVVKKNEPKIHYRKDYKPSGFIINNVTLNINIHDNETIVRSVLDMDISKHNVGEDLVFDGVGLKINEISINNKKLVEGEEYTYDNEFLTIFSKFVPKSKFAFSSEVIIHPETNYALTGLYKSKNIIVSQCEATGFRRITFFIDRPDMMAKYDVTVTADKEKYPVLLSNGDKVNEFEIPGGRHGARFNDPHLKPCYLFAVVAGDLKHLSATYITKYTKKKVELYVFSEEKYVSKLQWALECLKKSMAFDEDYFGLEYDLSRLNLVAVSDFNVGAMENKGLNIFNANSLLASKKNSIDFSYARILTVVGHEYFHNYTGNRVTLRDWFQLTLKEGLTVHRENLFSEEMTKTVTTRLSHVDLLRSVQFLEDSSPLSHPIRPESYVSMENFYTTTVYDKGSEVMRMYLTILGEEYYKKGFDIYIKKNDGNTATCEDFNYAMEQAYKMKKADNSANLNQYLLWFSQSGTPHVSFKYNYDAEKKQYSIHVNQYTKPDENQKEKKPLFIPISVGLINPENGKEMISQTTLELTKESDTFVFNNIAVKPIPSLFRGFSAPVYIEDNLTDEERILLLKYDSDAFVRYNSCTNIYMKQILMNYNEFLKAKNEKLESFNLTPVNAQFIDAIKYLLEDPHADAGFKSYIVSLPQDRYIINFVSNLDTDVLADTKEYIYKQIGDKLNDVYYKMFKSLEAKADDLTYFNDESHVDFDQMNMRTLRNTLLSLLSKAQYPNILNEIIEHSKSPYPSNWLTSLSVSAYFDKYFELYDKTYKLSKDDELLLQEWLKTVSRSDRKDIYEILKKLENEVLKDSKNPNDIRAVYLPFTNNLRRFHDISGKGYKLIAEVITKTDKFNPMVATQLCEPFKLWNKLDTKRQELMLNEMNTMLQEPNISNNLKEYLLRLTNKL
# [3] = biological target: Glyceraldehyde-3-phosphate dehydrogenase (Homo sapiens, UniProt P04406)
# [4] = biological target: T3, Alkaline phosphatase, tissue-nonspecific isozyme (Homo sapiens, UniProt P05186); assay: human TNAP enzyme inhibitors, SAR follow-up, biochemical, luminescent, dose response (AID 1056)
# T3 sequence (P05186 whole entry): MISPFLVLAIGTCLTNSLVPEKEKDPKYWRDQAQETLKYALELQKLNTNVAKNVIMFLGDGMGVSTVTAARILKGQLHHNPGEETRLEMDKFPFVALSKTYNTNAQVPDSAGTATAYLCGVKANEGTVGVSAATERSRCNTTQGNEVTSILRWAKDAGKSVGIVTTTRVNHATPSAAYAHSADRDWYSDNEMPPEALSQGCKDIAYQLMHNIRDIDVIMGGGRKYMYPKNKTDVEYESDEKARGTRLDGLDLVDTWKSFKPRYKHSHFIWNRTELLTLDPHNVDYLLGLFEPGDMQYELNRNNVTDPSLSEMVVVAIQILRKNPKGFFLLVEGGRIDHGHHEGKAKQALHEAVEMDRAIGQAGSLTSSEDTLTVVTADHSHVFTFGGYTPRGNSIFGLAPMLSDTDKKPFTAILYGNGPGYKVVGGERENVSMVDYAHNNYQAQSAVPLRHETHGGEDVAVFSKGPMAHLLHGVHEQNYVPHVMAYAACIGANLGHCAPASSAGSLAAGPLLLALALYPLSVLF
# [5] = HEp-2 cell cytotoxicity, dose response, cytotoxicity control for RSV inhibitor project, HTS (AID 2410); assay type: functional; details: human respiratory syncytial virus
# [6] = biological target: T4, Heat shock factor protein 1 (Mus musculus, UniProt P38532); assay: HSF1 potentiators in luciferase reporter cells, confirmation, cell-based, NIH3T3, luminescence, dose retest (AID 435004); assay type: functional;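 note: stress induced by proteasome inhibitor MG132 added 30 min after compound; luciferase reporter driven by HSF1 response element in NIH3T3 cells; actives raise luminescence as potentiators of the MG132 stress response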
# T4 sequence (P38532 whole entry): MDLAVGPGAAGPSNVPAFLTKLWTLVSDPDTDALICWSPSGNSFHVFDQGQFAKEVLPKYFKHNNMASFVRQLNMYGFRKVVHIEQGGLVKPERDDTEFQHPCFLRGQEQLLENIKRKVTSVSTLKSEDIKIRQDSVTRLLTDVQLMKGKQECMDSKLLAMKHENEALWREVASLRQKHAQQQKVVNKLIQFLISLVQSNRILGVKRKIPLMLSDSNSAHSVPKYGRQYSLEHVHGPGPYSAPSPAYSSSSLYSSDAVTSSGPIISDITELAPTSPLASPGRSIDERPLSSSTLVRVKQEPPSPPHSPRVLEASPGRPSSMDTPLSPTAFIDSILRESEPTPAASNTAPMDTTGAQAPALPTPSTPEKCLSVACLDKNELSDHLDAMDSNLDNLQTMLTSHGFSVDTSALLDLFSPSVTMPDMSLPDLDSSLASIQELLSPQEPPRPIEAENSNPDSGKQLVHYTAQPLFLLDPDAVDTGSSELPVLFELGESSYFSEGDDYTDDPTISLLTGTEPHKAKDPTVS
# [7] = cytotoxicity in HEK-293T cells, dose response, cytotoxicity control for BCR NF-kB inhibitor project, luminescence, B-cell screen hits (AID 489021); assay type: functional, cell-based;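 note: HEK-293T cells carrying an NF-kB luciferase reporter; cells exposed to compound for about 14 hours before viability readout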
# [8] = biological target: Peroxisome proliferator-activated receptor gamma/Nuclear receptor coactivator 1 (Homo sapiens, UniProt P37231); assay: (§1) TR-FRET dose response biochemical High Throughput Screening assay for agonists of the steroid receptor coactivator 1 (SRC-1) recruitment by the peroxisome proliferator-activated receptor gamma (PPAR gamma): non-selective agonists. [Related pubchem assays (depositor defined):AID1300, AID1808, AID504735, AID631]; assay type: protein assay
# [9] = biological target: Peroxisome proliferator-activated receptor gamma/Nuclear receptor coactivator 3 (Homo sapiens, UniProt P37231); assay: as §1, with “3 (SRC-3)” for “1 (SRC-1)”, “assays: 1301 (Confirmation screen.), 1048 (Primary screen.)]” for “assays (depositor defined):AID1300, AID1808, AID504735, AID631]”; assay type: functional
# [10] = biological target: Peroxisome proliferator-activated receptor gamma/Nuclear receptor coactivator 2 (Homo sapiens, UniProt P37231); assay: TR-FRET dose response biochemical High Throughput Screening assay for agonists of the steroid receptor coactivator 2 (SRC-2) recruitment by the peroxisome proliferator-activated receptor gamma (PPAR gamma): non-selective agonists. [Related pubchem assays: 1297, 1032 ]; assay type: functional
# cells [11] = assay type: functional, cell-based
# cells [12] = assay type: functional, cell-based; remark: listed apart in the source
# Nonstructural protein 1 = Nonstructural protein 1 (Influenza A virus, UniProt Q194T2); assay type: functional, Influenza A virus (A/California/07/2009(H1N1))
# [13] = biological target: T5, Microphthalmia-associated transcription factor (Homo sapiens, UniProt O75030); assay: TRPM1 promoter luciferase signal decrease, dose response, MITF inhibitor project, cell-based, SK-MEL-5, cherry-picked, set 3 (AID 493073); assay type: functional
# T5 sequence (O75030 whole entry): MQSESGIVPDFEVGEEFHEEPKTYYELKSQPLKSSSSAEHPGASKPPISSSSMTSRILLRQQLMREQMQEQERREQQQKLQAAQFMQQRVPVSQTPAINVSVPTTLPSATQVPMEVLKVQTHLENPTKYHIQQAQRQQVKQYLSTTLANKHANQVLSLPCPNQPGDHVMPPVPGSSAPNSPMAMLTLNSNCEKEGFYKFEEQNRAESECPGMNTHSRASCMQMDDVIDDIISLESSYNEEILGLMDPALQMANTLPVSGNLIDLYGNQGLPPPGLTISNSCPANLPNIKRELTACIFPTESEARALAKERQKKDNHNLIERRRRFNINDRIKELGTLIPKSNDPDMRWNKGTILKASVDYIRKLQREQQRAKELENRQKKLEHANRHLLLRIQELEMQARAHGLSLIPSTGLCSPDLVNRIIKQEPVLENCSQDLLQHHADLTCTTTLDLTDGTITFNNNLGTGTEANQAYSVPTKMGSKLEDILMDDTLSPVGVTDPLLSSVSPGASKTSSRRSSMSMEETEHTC
# [14] = A cytotoxicity screen of small molecule inhibitors of the PhoP region in Salmonella typhi identified in the primary screen. [Related pubchem assays: 1850, 1864, 1985 ]; assay type: functional
# [15] = biological target: Luciferin 4-monooxygenase (Photinus pyralis, UniProt P08659); assay: Counter Screen for Luciferase-based Assay Positives. [Related pubchem assays: 620, 618, 411 ]
# HT-1080 = assay: cytotoxicity in HT1080 fibrosarcoma cells, cell-based, fluorescence readout (AID 620); assay type: functional; details: Homo sapiens
# [16] = biological target: DNA dC->dU-editing enzyme APOBEC-3A (Homo sapiens, UniProt P31941); assay: Dose Response confirmation of small molecule APOBEC3A DNA Deaminase Inhibitors via a fluorescence-based single-stranded DNA deaminase assay. [Related pubchem assays (depositor defined):AID493011, AID493024]; assay type: functional
# [17] = biological target: DNA dC->dU-editing enzyme APOBEC-3G (Homo sapiens, UniProt Q9HC16); assay type: functional;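 note: Dose-response counterscreen measuring inhibition of APOBEC3G DNA deaminase activity, run while confirming APOBEC3A inhibitors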
# [18] = inhibitors of intracellular T. cruzi replication, confirmation, NIH3T3 host cells, beta-gal luminescence (AID 2044); assay type: functional, cell-based;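 note: intracellular parasites grown in NIH/3T3 mouse fibroblasts as host cells; luminescent beta-galactosidase reporter signal from transgenic T. cruzi replicating inside host cells; inhibitors lower the luminescence signal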
# [19] = cytotoxicity toward NIH3T3 fibroblasts, dose response, counter-screen, cell-based, ATP luminescence, mouse fibroblasts (AID 2010); assay type: functional;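 note: cells exposed to compound for about 90 hours before reading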
# [20] = microbe, parasite or virus in culture; assay type: functional; details: Mycobacterium tuberculosis
# [21] = Luminescence-based dose response cell-based high throughput screening assay for cytotoxic compounds using the IEC-6 intestinal epithelial cell line. [Related pubchem assays: 1858 (Summary AID.), 1825 (Counterscreen.), 1907 (Confirmation screen.)]; assay type: functional
# Vero = assay: cells; assay type: functional; details: Chlorocebus sabaeus
# Glyceraldehyde-3-phosphate dehydrogenase, sequence (P04406 whole entry): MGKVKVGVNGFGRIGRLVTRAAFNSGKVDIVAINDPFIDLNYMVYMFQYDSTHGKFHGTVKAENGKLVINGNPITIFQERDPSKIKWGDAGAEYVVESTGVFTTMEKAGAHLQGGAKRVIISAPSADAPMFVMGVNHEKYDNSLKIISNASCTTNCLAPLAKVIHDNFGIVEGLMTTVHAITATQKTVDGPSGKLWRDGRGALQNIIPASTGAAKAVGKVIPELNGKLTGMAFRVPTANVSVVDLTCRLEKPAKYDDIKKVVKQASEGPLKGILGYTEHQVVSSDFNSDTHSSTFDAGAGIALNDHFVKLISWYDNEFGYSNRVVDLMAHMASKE
# DNA dC->dU-editing enzyme APOBEC-3A, sequence (P31941 whole entry): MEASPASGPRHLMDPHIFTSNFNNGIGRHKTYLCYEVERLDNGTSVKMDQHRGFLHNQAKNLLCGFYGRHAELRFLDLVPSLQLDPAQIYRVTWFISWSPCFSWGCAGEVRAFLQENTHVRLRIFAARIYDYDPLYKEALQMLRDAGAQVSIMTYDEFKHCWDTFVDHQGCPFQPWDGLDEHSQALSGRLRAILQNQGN
# DNA dC->dU-editing enzyme APOBEC-3G, sequence (Q9HC16 whole entry): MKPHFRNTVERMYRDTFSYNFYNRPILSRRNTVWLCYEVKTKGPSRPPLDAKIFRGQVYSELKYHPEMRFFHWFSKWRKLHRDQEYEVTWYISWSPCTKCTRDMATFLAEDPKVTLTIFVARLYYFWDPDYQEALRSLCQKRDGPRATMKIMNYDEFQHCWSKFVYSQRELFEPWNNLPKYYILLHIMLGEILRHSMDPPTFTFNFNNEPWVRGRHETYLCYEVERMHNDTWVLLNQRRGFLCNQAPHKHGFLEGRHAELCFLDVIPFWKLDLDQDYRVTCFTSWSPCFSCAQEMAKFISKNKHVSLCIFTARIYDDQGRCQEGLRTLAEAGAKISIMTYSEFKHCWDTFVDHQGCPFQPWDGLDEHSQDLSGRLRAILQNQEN
# Melanin-concentrating hormone receptor 1, sequence (Q99705 whole entry): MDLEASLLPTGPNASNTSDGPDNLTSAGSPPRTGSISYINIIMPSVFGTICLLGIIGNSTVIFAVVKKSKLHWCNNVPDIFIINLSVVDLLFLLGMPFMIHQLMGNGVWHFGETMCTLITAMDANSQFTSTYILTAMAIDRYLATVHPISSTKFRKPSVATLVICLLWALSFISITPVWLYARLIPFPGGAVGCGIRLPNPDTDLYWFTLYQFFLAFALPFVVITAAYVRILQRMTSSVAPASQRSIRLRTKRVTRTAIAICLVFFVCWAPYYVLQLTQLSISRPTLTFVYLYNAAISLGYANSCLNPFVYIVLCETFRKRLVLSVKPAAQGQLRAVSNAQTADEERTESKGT
# Peroxisome proliferator-activated receptor gamma/Nuclear receptor coactivator 2, sequence (P37231 whole entry): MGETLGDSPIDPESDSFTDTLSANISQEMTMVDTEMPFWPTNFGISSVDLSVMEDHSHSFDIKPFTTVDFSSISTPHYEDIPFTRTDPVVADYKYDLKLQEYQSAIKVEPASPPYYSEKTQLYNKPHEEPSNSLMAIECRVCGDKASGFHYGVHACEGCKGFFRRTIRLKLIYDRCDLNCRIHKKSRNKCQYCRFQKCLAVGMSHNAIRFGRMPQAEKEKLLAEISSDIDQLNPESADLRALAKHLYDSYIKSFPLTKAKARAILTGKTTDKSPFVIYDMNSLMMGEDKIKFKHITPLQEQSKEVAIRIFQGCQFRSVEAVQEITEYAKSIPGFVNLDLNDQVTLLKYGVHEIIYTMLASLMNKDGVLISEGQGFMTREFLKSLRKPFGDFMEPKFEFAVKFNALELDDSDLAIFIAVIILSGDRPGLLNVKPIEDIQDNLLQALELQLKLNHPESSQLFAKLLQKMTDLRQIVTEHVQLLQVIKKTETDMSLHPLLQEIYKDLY
# Peroxisome proliferator-activated receptor gamma/Nuclear receptor coactivator 2, sequence (Q15596 whole entry, further chain): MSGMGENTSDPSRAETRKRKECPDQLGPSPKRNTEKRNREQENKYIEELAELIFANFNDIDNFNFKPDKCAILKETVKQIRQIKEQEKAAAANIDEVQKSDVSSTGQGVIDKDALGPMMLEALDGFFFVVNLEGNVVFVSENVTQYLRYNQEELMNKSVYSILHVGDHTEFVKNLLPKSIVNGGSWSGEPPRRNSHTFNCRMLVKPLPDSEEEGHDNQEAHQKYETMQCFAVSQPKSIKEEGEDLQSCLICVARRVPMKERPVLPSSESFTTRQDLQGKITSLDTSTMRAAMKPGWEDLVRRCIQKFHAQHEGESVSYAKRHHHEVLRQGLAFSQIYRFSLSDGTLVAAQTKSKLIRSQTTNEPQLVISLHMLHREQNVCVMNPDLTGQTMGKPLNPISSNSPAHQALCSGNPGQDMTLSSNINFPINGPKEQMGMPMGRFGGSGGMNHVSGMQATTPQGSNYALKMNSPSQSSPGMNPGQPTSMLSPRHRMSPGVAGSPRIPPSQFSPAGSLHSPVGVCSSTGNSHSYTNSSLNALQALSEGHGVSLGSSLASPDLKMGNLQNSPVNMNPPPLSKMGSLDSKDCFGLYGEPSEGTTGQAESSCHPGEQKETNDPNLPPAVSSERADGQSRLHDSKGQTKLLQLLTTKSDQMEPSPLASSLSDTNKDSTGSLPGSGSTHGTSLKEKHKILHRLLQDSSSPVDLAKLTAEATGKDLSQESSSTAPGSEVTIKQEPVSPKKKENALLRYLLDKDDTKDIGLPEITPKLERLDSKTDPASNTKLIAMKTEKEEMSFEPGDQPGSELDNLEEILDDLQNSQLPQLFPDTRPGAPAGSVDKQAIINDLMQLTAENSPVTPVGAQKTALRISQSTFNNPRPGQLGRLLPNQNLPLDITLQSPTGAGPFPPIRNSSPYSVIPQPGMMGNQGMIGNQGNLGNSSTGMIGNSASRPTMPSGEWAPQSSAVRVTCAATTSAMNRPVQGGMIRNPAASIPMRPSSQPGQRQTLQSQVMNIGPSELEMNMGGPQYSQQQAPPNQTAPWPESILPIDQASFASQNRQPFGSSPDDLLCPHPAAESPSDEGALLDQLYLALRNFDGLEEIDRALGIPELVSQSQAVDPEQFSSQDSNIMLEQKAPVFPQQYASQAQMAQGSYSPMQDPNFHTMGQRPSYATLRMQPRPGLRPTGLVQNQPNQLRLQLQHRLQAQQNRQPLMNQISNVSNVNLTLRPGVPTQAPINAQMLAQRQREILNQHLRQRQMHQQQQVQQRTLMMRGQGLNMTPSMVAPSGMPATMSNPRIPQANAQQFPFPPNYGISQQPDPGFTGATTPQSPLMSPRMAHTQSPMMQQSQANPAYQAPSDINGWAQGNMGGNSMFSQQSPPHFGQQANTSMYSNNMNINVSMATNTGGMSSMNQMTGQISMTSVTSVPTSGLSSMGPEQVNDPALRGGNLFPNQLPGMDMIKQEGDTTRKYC
# Nonstructural protein 1, sequence (Q194T2 whole entry): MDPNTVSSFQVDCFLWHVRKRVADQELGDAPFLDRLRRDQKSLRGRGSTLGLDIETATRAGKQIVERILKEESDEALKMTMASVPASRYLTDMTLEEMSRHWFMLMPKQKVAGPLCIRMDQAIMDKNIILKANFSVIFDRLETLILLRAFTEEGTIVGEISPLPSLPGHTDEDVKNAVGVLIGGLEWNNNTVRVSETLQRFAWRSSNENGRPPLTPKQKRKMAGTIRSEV
# Luciferin 4-monooxygenase, sequence (P08659 whole entry): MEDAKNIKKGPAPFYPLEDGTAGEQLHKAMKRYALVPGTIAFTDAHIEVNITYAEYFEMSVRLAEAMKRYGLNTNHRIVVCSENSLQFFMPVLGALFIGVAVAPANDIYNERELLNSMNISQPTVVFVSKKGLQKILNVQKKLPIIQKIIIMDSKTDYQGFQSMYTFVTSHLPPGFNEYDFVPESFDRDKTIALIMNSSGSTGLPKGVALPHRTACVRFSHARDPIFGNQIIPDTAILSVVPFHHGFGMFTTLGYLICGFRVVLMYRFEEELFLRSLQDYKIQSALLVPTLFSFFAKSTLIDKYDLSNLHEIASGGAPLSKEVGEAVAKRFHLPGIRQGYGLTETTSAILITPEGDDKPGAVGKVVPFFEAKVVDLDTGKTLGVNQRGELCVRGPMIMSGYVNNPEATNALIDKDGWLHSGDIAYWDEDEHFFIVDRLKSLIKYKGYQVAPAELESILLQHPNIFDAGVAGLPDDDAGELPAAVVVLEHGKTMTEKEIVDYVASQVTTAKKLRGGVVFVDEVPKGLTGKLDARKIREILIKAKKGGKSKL
smiles,measurement,setting,value
Cc1ccc(N=C(S)NCc2ccc(Cl)cc2)c(C)c1,IC50,[1],> 43.8 µM (not active)
same,IC50,[2],17.1 µM (not active)
Cc1ccccc1CSc1nc(O)c2c[nH]nc2n1,IC50,Aminopeptidase N,65.2 µM (active)
COc1ccc(OC)c(S(=O)(=O)Nc2ccc3ncccc3c2)c1,IC50,[3],> 100 µM (not active)
same,IC50,[4],> 100 µM (inactive)
CC1=CC(C)(C)Nc2ccc(OC(=O)C(Cc3ccccc3)N3C(=O)c4ccccc4C3=O)cc21 (centres undefined),CC50,[5],> 50 µM (active)
same,EC50,[6],> 260 µM (inactive)
same,IC50,[7],> 80 µM (inactive)
CCn1c(=O)cc(SCC(=O)N2CCCCC2)c2ccccc21,EC50,[8],> 79.4 µM (inactive)
same,EC50,[9],> 79.4 µM (not active)
same,EC50,[10],> 79.4 µM (not active)
same,IC50,[7],> 80 µM (inactive)
O=C(N/N=C/c1cc(Cl)ccc1O)c1ccncc1,IC50,Aminopeptidase N,22.3 µM (active)
same,EC50,cells [11],18.1 µM (active)
same,EC50,cells [12],> 350 µM (not active)
same,IC50,Nonstructural protein 1,5.05 µM (active)
same,AC50,[13],8.98 µM (active)
COc1ccc(OC)c(S(=O)(=O)Nc2cccc3ccccc23)c1,IC50,[3],> 100 µM (not active)
same,IC50,[4],> 100 µM (inactive)
COc1ccccc1/C=C/C(=O)Nc1cccc(C(C)=O)c1,EC50,[14],> 50 µM (active)
CC1=NC(=O)C(N=Nc2cccc(C(=O)O)c2)N1c1ccccc1 (centres undefined),EC50,[15],0.67 µM (active)
same,EC50,HT-1080,> 50 µM (not active)
same,IC50,[16],4.74 µM (active)
same,IC50,[17],6.48 µM (active)
same,AC50,[13],8.62 µM (active)
c1cc(Cn2ccnc2)ccn1,IC50,[3],> 100 µM (not active)
same,IC50,[4],> 100 µM (inactive)
O=C(O)COc1ccc(Br)cc1CP(=O)(c1ccccc1)c1ccccc1,IC50,Aminopeptidase N,49.3 µM (active)
O=[N+]([O-])c1nn(-c2ccc3c(c2)OCCO3)[n+]([O-])c1Nc1ccc(Cl)cc1,IC50,[1],> 43.8 µM (not active)
same,IC50,[2],> 43.8 µM (not active)
same,EC50,[18],0.131 µM (active)
same,EC50,[19],> 60 µM (not active)
Cc1[nH]c2ccccc2c1/C=N/Nc1nc(Nc2ccccc2)nc(N2CCOCC2)n1,CC50,[5],22.6 µM (active)
same,CC50,[20],24.1 µM (active)
same,IC50,[21],0.482 µM (active)
same,IC50,[7],66.7 µM (inactive)
same,CC50,Vero,3.33 µM (active)
O=C(CSc1nnc(NC(=O)c2ccccc2C(=O)O)s1)Nc1ccccc1Cl,IC50,[16],14 µM (active)
same,IC50,[17],9.42 µM (active)
